Laboratory results taken from patent publication US11932639B2, “Fused ring heteroaryl compounds as ALK4/5 inhibitors” (BiSiChem Co., Ltd., priority 2019, dated 2024).
pIC50: −log10 of the molar value.

Target: T1, ALK5 (Homo sapiens, UniProt P36897)
T1 construct: endogenous in cells; host or cells: Hs578T (ATCC HTB-22), inferred as the cells of the reporter assay
T1 sequence (P36897 34-503): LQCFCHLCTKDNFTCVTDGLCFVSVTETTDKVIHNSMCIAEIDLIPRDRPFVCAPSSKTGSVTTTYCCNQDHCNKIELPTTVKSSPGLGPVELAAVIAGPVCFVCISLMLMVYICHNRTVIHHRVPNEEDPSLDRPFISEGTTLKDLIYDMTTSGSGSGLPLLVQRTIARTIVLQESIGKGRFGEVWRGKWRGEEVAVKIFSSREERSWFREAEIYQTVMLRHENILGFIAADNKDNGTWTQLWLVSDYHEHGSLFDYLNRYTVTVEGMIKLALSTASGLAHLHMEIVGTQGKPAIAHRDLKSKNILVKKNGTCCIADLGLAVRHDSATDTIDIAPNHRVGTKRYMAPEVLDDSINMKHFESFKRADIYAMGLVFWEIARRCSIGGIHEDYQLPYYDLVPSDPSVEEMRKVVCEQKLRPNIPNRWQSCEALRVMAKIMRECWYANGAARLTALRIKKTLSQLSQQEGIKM
Assay: Cell-based luciferase reporter assay for ALK5 activity
Conditions: (CAGA)-12-luciferase reporter, Smad 2/3-responsive promoter, 2 ng/ml TGF-β1 stimulation for 12 hours; read-out: Relative luciferase activity: IC50 value
Method: Human cancer cell lines Hs578T (ATCC® HTB-22™) cells were grown in DMEM (Dulbecco's modified Eagle's medium) supplemented with 10% fetal bovine serum and 1% mixture of penicillin and streptomycin (Gibco). Cells were maintained at 37° C. in a humidified 5% CO2 atmosphere.
Cell-Based Luciferase Reporter Assay for ALK5 Activity
Cells were seeded at 3×10^4/well in 24-well plates were transiently transfected with 500 ng of (CAGA)-12-luciferase reporter construct and 5 ng of pRL-TK Renilla luciferase vector (Promega, Madison, WI), an internal control for transfection efficiency, using Lipofectamine 3000 reagent (Thermo Fisher Scientific, Waltham, USA). After 24 h transfection, the cells were pre-treated with ALK5 inhibitor in dose-dependent manner. And then, Cells stimulated with 2 ng/ml recombinant TGF-β1 for 12 hours. After the stimulation, the firefly and Renilla luciferase activities were measured by Dual-Luciferase Repoter Assay (Promega).

Row | SMILES | pIC50
1 | Cc1cccc(-c2[nH]c(NC(=O)c3ccccc3F)nc2-c2ccn3ncnc3c2)n1 [Example 26, N-(4-([1,2,4]triazolo[1,5-a]pyridin-7-yl)-5-(6-methylpyridin-2-yl)-1H-imidazol-2-yl)-2-fluorobenzamide] | 7.00 to 8.00
2 | Cc1cccc(-c2[nH]c(NCc3cccc(F)c3)nc2-c2ccn3ncnc3c2)n1 [Example 12, 4-([1,2,4]triazolo[1,5-a]pyridin-7-yl)-N-(3-fluorobenzyl)-5-(6-methylpyridin-2-yl)-1H-imidazol-2ylamine] | 7.00 to 8.00
3 | Cc1cccc(-c2[nH]c(NCc3ccccc3F)nc2-c2ccn3nccc3c2)n1 [Example 6, N-(2-fluorobenzyl)-5-(6-methylpyridin-2-yl)-4-(pyrazolo[1,5-a]pyridine-5-yl)-1H-imidazol-2-amine] | 7.00 to 8.00
4 | Cc1cccc(-c2[nH]c(NCc3cc(Cl)ccc3F)nc2-c2ccn3ncnc3c2)n1 [Example 19, 4-([1,2,4]triazolo[1,5-a]pyridin-7-yl)-N-(5-chloro-2-fluorobenzyl)-5-(6-methylpyridin-2-yl)-1H-imidazol-2-amine] | 7.00 to 8.00
5 | CNC(=O)c1cccc(CNc2nc(-c3ccn4ncnc4c3)c(-c3cccc(C)n3)[nH]2)c1 [Example 24, 3-((4-([1,2,4]triazolo[1,5-a]pyridin-7-yl)-5-(6-methylpyridin-2-yl)-1H-imidazol-2ylamino)methyl)-N-methylbenzamide] | < 7.00
6 | Cc1cccc(-c2[nH]c(CNc3ccccc3F)nc2-c2ccn3ncnc3c2)n1 [Example 3, N-((4-([1,2,4]triazolo[1,5-a]pyridin-7-yl)-5-(6-methylpyridin-2-yl)-1H-imidazol-2-yl)methyl)-2-fluoroaniline] | 7.00 to 8.00
7 | Cc1cccc(-c2[nH]c(NCc3cccc(F)c3F)nc2-c2ccn3ncnc3c2)n1 [Example 15, 4-([1,2,4]triazolo[1,5-a]pyridin-7-yl)-N-(2,3-difluorobenzyl)-5-(6-methylpyridin-2-yl)-1-imidazol-2-ylamine] | 7.00 to 8.00
8 | Cc1cccc(-c2[nH]c(NCc3cccc(Cl)c3)nc2-c2ccn3ncnc3c2)n1 [Example 13, 4-([1,2,4]triazolo[1,5-a]pyridin-7-yl)-N-(3-chlorobenzyl)-5-(6-methylpyridin-2-yl)-1H-imidazol-2-amine] | 7.00 to 8.00
9 | COc1cccc(CNc2nc(-c3ccn4ncnc4c3)c(-c3cccc(C)n3)[nH]2)c1F [Example 22, 4-([1,2,4]triazolo[1,5-a]pyridin-7-yl)-N-(2-fluoro-3-methoxybenzyl)-5-(6-methylpyridin-2-yl)-1H-imidazol-2-amine] | 7.00 to 8.00
10 | Cc1cccc(-c2[nH]c(NCc3c(F)cccc3F)nc2-c2ccn3ncnc3c2)n1 [Example 16, 4-([1,2,4]triazolo[1,5-a]pyridin-7-yl)-N-(2,6-difluorobenzyl)-5-(6-methylpyridin-2-yl)-1H-imidazol-2-amine] | 7.00 to 8.00
11 | Cc1cccc(-c2[nH]c(NCc3cccc(Cl)c3F)nc2-c2ccn3nccc3c2)n1 [Example 8, N-(3-chloro-2-fluorobenzyl)-5-(6-methylpyridin-2-yl)-4-(pyrazolo[1,5-a]pyridin-5-yl)-1H-imidazol-2-amine] | 7.00 to 8.00
12 | CNC(=O)c1ccc(CNc2nc(-c3ccn4ncnc4c3)c(-c3cccc(C)n3)[nH]2)cc1 [Example 25, 4-((4-([1,2,4]triazolo[1,5-a]pyridin-7-yl)-5-(6-methylpyridin-2-yl)-1H-imidazol-2-ylamino)methyl)-N-methylbenzamide] | < 7.00
13 | COc1ccc(CNc2nc(-c3ccn4ncnc4c3)c(-c3cccc(C)n3)[nH]2)c(F)c1 [Example 23, 4-([1,2,4]triazolo[1,5-a]pyridin-7-yl)-N-(2-fluoro-4-methoxybenzyl)-5-(6-methylpyridin-2-yl)-1H-imidazol-2-amine] | 7.00 to 8.00
14 | Cc1cccc(-c2[nH]c(CNc3cccc(Cl)c3F)nc2-c2ccn3nccc3c2)n1 [Example 1, 3-chloro-2-fluoro-N-((5-(6-methylpyridin-2-yl)-4-(pyrazolo[1,5-a]pyridin-5-yl)-1H-imidazol-2-yl)methyl)aniline] | 7.00 to 8.00
15 | Cc1cccc(-c2[nH]c(NCc3ccc(Cl)cc3F)nc2-c2ccn3ncnc3c2)n1 [Example 17, 4-([1,2,4]triazolo[1,5-a]pyridin-7-yl)-N-(4-chloro-2-fluorobenzyl)-5-(6-methylpyridin-2-yl)-1H-imidazol-2-amine] | 7.00 to 8.00
16 | Cc1cccc(-c2[nH]c(NC(C)c3ccccc3F)nc2-c2ccn3ncnc3c2)n1 (stereo not drawn) [Example 27, 4-([1,2,4]tiazolo[1,5-a]pyridin-7-yl)-N-(1-(2-fluorophenyl)ethyl)-5-(6-methylpyridin-2-yl)-1H-imidazol-2-amine] | 7.00 to 8.00

Results, then the compound that gave them:

Row | pIC50 | SMILES
17 | 7.00 to 8.00 | Cc1cccc(-c2[nH]c(NCc3ccc(Cl)cc3Cl)nc2-c2ccn3ncnc3c2)n1 [Example 21, 4-([1,2,4]triazolo[1,5-a]pyridin-7-yl)-N-(2,4-dichlorobenzyl)-5-(6-methylpyridin-2-yl)-1H-imidazol-2-amine]
18 | 7.00 to 8.00 | Cc1cccc(-c2[nH]c(NCc3ccc(Cl)c(Cl)c3)nc2-c2ccn3nccc3c2)n1 [Example 10, N-(3,4-dichlorobenzyl)-5-(6-methylpyridin-2-yl)-4-(pyrazolo[1,5-a]pyridin-5-yl)-1H-imidazol-2-amine]
19 | 7.00 to 8.00 | Cc1cccc(-c2[nH]c(NCc3cccc(F)c3)nc2-c2ccn3nccc3c2)n1 [Example 7, N-(3-fluorobenzyl)-5-(6-methylpyridin-2-yl)-4-(pyrazolo[1,5-a]pyridine-5-yl)-1H-imidazol-2-amine]
20 | 7.00 to 8.00 | Cc1cccc(-c2[nH]c(NCc3ccccc3F)nc2-c2ccn3ncnc3c2)n1 [Example 11, 4-([1,2,4]triazolo[1,5-a]pyridin-7-yl)-N-(2-fluorobenzyl)-5-(6-methylpyridin-2-yl)-1H-imidazol-2-amine]
21 | > 8.00 | Cc1cccc(-c2[nH]c(NCc3ccc(Cl)c(Cl)c3)nc2-c2ccn3ncnc3c2)n1 [Example 20, 4-([1,2,4]triazolo[1,5-a]pyridin-7-yl)-N-(3,4-dichlorobenzyl)-5-(6-methylpyridin-2-yl)-1H-imidazol-2-amine]
22 | > 8.00 | Cc1cccc(-c2[nH]c(CNc3cccc(Cl)c3F)nc2-c2ccn3ncnc3c2)n1 [Example 4, N-((4-([1,2,4]triazolo[1,5-a]pyridin-7-yl)-5-(6-methylpyridin-2-yl)-1H-imidazol-2-yl)methyl)-3-chloro-2-fluoroaniline]
23 | > 8.00 | Cc1cccc(-c2[nH]c(NCc3cccc(Cl)c3F)nc2-c2ccn3ncnc3c2)n1 [Example 18, 4-([1,2,4]triazolo[1,5-a]pyridin-7-yl)-N-(3-chloro-2-fluorobenzyl)-5-(6-methylpyridin-2-yl)-1H-imidazol-2-amine]
24 | > 8.00 | Cc1cccc(-c2[nH]c(NCc3ccc(Cl)cc3)nc2-c2ccn3ncnc3c2)n1 [Example 14, 4-([1,2,4]triazolo[1,5-a]pyridin-7-yl)-N-(4-chlorobenzyl)-5-(6-methylpyridin-2-yl)-1H-imidazol-2-amine]
25 | > 8.00 | Cc1cccc(-c2[nH]c(CNc3ccc(Cl)c(Cl)c3)nc2-c2ccn3nccc3c2)n1 [Example 2, 3,4-dichloro-N-((5-(6-methylpyridin-2-yl)-4-(pyrazolo[1,5-a]pyridin-5-yl)-1H-imidazol-2-yl)methyl)aniline]
26 | > 8.00 | Cc1cccc(-c2[nH]c(CNc3ccc(Cl)c(Cl)c3)nc2-c2ccn3ncnc3c2)n1 [Example 5, N-((4-([1,2,4]triazolo[1,5-a]pyridin-7-yl)-5-(6-methylpyridin-2-yl)-1H-imidazol-2-yl)methyl)-3,4-dichloroaniline]
27 | > 8.00 | Cc1cccc(-c2[nH]c(NCc3ccc(Cl)cc3F)nc2-c2ccn3nccc3c2)n1 [Example 9, N-(4-chloro-2-fluorobenzyl)-5-(6-methylpyridin-2-yl)-4-(pyrazolo[1,5-a]pyridin-5-yl)-1H-imidazol-2-amine]
